# Source: US7208314B2, “Compositions and methods for drug delivery using pH sensitive molecules” (priority 2002, dated 2007)
# Ends that are not written are not given here.
# Columns and labels:
# cells = type: cell-based; conditions: for Relative Light Units (luciferase expression): pCIluc DNA/poly-L-lysine complex plus 40 μg modified lipid, 48 h; for Relative Light Units relative to poly-L-lysine (no lipid): value in parentheses
# [1] = Kinetics of conversion of dimethylmaleamic modified amines to amines at pH 5 (trinitrobenzenesulfonate); type: physicochemical
# Description: Dimethyl maleamic modified poly-L-lysine (10 mg/mL) was incubated in 10 mM sodium acetate buffer pH 5. At various times, aliquots (10 μg) were removed and added to 0.5 mL of 100 mM borax solution containing 0.4 mM trinitrobenzenesulfonate. A half an hour later, the absorbance of the solution at 420 nm was measured. To determine the concentration of amines at each time point, the extinction coefficient was determine for the product of trinitrobenzenesulfonate and poly-L-lysine. Using this extinction coefficient we were able to calculate the amount of amines and maleamic groups at each time point. A plot of ln (At/A0) as a function of time was a straight line whose slope is the negative of the rate constant for the conversion of maleamic acid to amine and anhydride, where At is the concentration of maleamic acid at a time t and A0 is the initial concentration of maleamic acid. For two separate experiments we calculated rate constants of […] which correspond to half lives of roughly 10 and 4 minutes respectively.
# Dimethyl maleamic modified KL3 (0.1 mg/mL) was incubated in 40 mM sodium acetate buffer pH 5 and 1 mM cetyltrimetylammonium bromide. At various times, aliquots (10 μg) were removed and added to 0.05 mL of 1 M borax solution containing 4 mM trinitrobenzenesulfonate. A half an hour later, the absorbance of the solution at 420 nm was measured. […]
# red blood cells = assay: Blood lysis experiment on melittin conjugated to microspheres via ketal; type: cell-based
# Description: The microspheres were taken up in H2O (500 μL) and partitioned into five 100 μL samples. Four of the samples were diluted to 1000 μL with sodium phosphate buffer (100 mM) at pH 7.5, 6.0, 5.5, and 5.0. Samples were held at 37° C., spun down, and 150 μL aliquots taken at 30 min, 60 min, 90 min, and 16 hrs. A portion of each sample (100 μL) was diluted with sodium phosphate buffer (400 μL, pH 7.5) and added to red blood cells (100 μL, pH 7.5). Red blood cell lysis was measured after 10 min by measuring the absorbance at 541 nm. A control sample was also measured in which 100% of the red blood cells had been lysed with melittin alone.
# The fifth 100 μL sample was further divided into 25 μL samples, three of which were diluted to 250 μL with sodium phosphate buffer (100 mM) at pH 7.5, 6.0, and 5.0. The samples were held at 37° C. for 30 min, spun down and the supernatant removed, and resuspended in 2.5 M NaCl solution (50 μL) and mixed. After 10 min the microspheres were spun down and the supernatant removed. The samples were added to red blood cells (500 μL, 100 mM) and the absorbance was measured at 541 nm.
# HELA cells = assay: Endosome disruption assay (FITC-dextran, propidium iodide); type: cell-based; conditions: 50 μg
# Description: HeLa cells were plated in 6-well tissue culture dishes containing microscope slide coverslips and grown in Delbecco's Modified Eagle's Medium (DMEM)+10% fetal calf serum+penn/strep for 24–48 hours until 30–60% confluent. […] After 25 min, media containing FITC-dextran±melittin was removed, the cells were washed twice with 1 ml 37° C. DMEM lacking FITC-dextran and melittin, and cells were incubated for an additional 35 min at 37° C. in 1 ml fresh DMEM. In order to assess possible cell lysis caused by melittin, propidium iodide was added for the final 5 min of incubation. […] However, if the plasma membrane has been damaged, propidium iodide enters the cell where it will brightly stain the nucleus. To process slides for analysis, cells were washed 3 times with cold phosphate buffered saline (PBS), fixed in PBS+4% formaldehyde for 20–30 min at 4° C., and washed again 3 times with cold PBS. Excess liquid was drained from coverslips which were then mounted onto glass slides. Fluorescence was then analyzed on a Zeiss LSM510 confocal microscope. FITC was excited by a 488 nm argon laser and fluorescence emission was detected by a long pass 505 nm filter. […] For cells incubated with unmodified melittin near 100% cell death was observed as determined by propidium iodide staining of nuclei and loss of cells from the sample.
# [2] = test system: 3T3 mouse embryonic fibroblast cells; assay: In vitro transfection with DNA-PLL-KL3 and dimethylmaleamic KL3, luciferase expression; type: cell-based
# Description: To a complex of plasmid DNA pCIluc (10 μg/mL, 0.075 mM in phosphate, 2.6 μg/μL pCIluc; prepared according to Danko, I., Williams, P., Herweijer, H. Zhang, G., Latendresse, J. S., Bock, I., Wolff, J. A. Hum. Mol. Genetics 1997, 6, 1435.) and poly-L-lysine (40 μg/mL) in 0.5 mL of 5 mM HEPES pH 7.5 was added succinylated poly-L-lysine (34,000 MW, Aldrich Chemical), 2,3-dimethylmaleamic melittin and 2,3-dimethylmaleamic KL3. The DNA-poly-L-lysine-2,3-dimethylmaleamic peptide complexes were then added (200 μL) to wells containing 3T3 mouse embryonic fibroblast cells in 290 mM glucose and 5 mM HEPES buffer pH 7.5. After 1.5 h, the glucose media was replaced with Dubelco's modified Eagle Media and the cells were allowed to incubate for 48 h. The cells were then harvested and then assayed for luciferase expression as previously reported (Wolff, J. A., Malone, R. W., Williams, P., Chong, W., Acsadi, G., Jani, A. and Felgner, P. L. Direct gene transfer into mouse muscle in vivo. Science, 1465–1468, 1990.). A Lumat LB 9507 (EG&G Berthold, Bad-Wildbad, Germany) luminometer was used. The amount of transfection was reported in relative light units and is the average transfection for two separate wells of cells.
# [3] = Hemolysis assay: melittin or KL3 blocked by anionic polymer or dimethylmaleic anhydride; type: cell-based; conditions: pH 7.5; 30 minutes, 37 C; read-out: Percent hemolysis
# Description: The membrane-disruptive activity of the peptide melittin and subsequent blocking of activity by anionic polymers was measured using a red blood cell (RBC) hemolysis assay. RBCs were harvested by centrifuging whole blood for 4 min. They were washed three times with 100 mM dibasic sodium phosphate at the desired pH, and resuspended in the same buffer to yield the initial volume. They were diluted 10 times in the same buffer, and 200 uL of this suspension was used for each tube. This yields 10 ? 8 RBCs per tube. Each tube contained 800 uL of buffer, 200 uL of the RBC suspension, and the peptide with or without polymer. Each sample was then repeated to verify reproducibility. The tubes were incubated for 30 minutes in a 37 C water bath. They were spun for 5 min at full speed in the microcentifuge. Lysis was determined by measuring the absorbance of the supernatant at 541 nm, reflecting the amount of hemoglobin that had been released into the supernatant. Percent hemolysis was calculated assuming 100% lysis to be measured by the hemoglobin released by the red blood cells in water; controls of RBCs in buffer with no peptide were also run.
# [4] = 15 mM sodium acetate pH 5 buffer
# Description: The absorbance of the solution at 225 nm, which is the wavelength at which enol ethers absorb (Kresge, A. J.; Sagatys, D. S.; Chen, H. L. J. Am. Chem. Soc. 1977, 99, 7228) was measured over time.
# The absorbance of the solution at 225 nm was measured as a function of time.
compound,measurement,setting,value
"CCCCCCCC/C=C\CCCCCCCC(=O)OCC(COC(=O)/C(C)=C(/C)C(=O)O)OC(=O)CCCCCCC/C=C\CCCCCCCC (centres unmarked) [2,3-dimethylmaleamic-modified DOG]",Relative Light Units (luciferase expression),cells,193624 Relative Light Units
same,Relative Light Units relative to poly-L-lysine (no lipid),cells,32
"CCCCCCCC/C=C\CCCCCCCC(=O)OC[C@H](COP(=O)(O)OCCNC(=O)/C(C)=C(/C)C(=O)O)OC(=O)CCCCCCC/C=C\CCCCCCCC [2,3-dimethylmaleamic-modified DOPE]",Relative Light Units (luciferase expression),cells,243359 Relative Light Units
same,Relative Light Units relative to poly-L-lysine (no lipid),cells,40
C/C(C(N)=O)=C(\CCC(=O)O)C(=O)O [2-propionic-3-methylmaleamic acid],rate of maleamic acid cleavage compared,[1],"the same as that for 2,3-dimethylmaleamic acids"
"CC[C@H](C)[C@H](NC(=O)CN)C(=O)NCC(=O)N[C@@H](C)C(=O)N[C@H](C(=O)N[C@@H](CC(C)C)C(=O)N[C@@H](CCCCN)C(=O)N[C@H](C(=O)N[C@@H](CC(C)C)C(=O)N[C@H](C(=O)N[C@H](C(=O)NCC(=O)N[C@@H](CC(C)C)C(=O)N1CCC[C@H]1C(=O)N[C@@H](C)C(=O)N[C@@H](CC(C)C)C(=O)N[C@H](C(=O)N[C@@H](CO)C(=O)N[C@@H](Cc1c[nH]c2ccccc12)C(=O)N[C@H](C(=O)N[C@@H](CCCCN)C(=O)N[C@@H](CCCNC(=N)N)C(=O)N[C@@H](CCCCN)C(=O)N[C@@H](CCCNC(=N)N)C(=O)N[C@@H](CCC(N)=O)C(=O)N[C@@H](CCC(N)=O)C(N)=O)[C@@H](C)CC)[C@@H](C)CC)[C@@H](C)O)[C@@H](C)O)C(C)C)C(C)C [Melittin, reference compound]",A541 (red blood cell lysis),"red blood cells; control, 100% lysis with melittin alone",1.881
same,cell death (propidium iodide staining of nuclei and loss of cells),HELA cells,~100%
KLLKLLLKLWLKLLKLLLKLL [KL3],Relative Light Units (luciferase expression),"[2]; pCIluc DNA/poly-L-lysine complex plus named additive, 48 h, average of two wells",261 Relative Light Units
same,Relative Light Units relative to Succinylated poly-L-lysine,[2]; value in parentheses,0.04
same,hemolysis,[3],86%
"Melittin Conjugated to Microspheres: melittin attached to carboxylic acid modified microspheres via Di-(2-methyl-4-hydroxymethyl-1,3-dioxolane)-1,4-benzene ketal",A541 (red blood cell lysis),"red blood cells; 30 min pH 5.0, 37° C.",0.659
same,A541 (red blood cell lysis),"red blood cells; 30 min pH 5.5, 37° C.",0.609
same,A541 (red blood cell lysis),"red blood cells; 30 min pH 6.0, 37° C.",0.326
same,A541 (red blood cell lysis),"red blood cells; 30 min pH 7.5, 37° C.",0.026
same,A541 (red blood cell lysis),"red blood cells; 60 min pH 5.0, 37° C.",0.730
same,A541 (red blood cell lysis),"red blood cells; 60 min pH 5.5, 37° C.",0.526
same,A541 (red blood cell lysis),"red blood cells; 60 min pH 6.0, 37° C.",0.212
same,A541 (red blood cell lysis),"red blood cells; 60 min pH 7.5, 37° C.",0.027
same,A541 (red blood cell lysis),"red blood cells; 90 min pH 5.0, 37° C.",0.892
same,A541 (red blood cell lysis),"red blood cells; 90 min pH 5.5, 37° C.",0.640
same,A541 (red blood cell lysis),"red blood cells; 90 min pH 6.0, 37° C.",0.390
same,A541 (red blood cell lysis),"red blood cells; 90 min pH 7.5, 37° C.",0.036
same,A541 (red blood cell lysis),"red blood cells; 16 hrs pH 5.0, 37° C.",1.163
same,A541 (red blood cell lysis),"red blood cells; 16 hrs pH 5.5, 37° C.",0.796
same,A541 (red blood cell lysis),"red blood cells; 16 hrs pH 6.0, 37° C.",0.354
same,A541 (red blood cell lysis),"red blood cells; 16 hrs pH 7.5, 37° C.",0.065
same,time of rapid release of modified peptide,red blood cells; all acidic pH levels tested,< 30 min
same,release of modified peptide from the microsphere,red blood cells; pH 7.5,not released
same,A541 (red blood cell lysis),"red blood cells; second experiment, 30 min pH 5.0 supernatant",0.685
same,A541 (red blood cell lysis),"red blood cells; second experiment, 30 min pH 6.0 supernatant",0.213
same,A541 (red blood cell lysis),"red blood cells; second experiment, 30 min pH 7.5 supernatant",0.053
same,A541 (red blood cell lysis),"red blood cells; second experiment, pH 5.0, 2.5 M NaCl wash",0.101
same,A541 (red blood cell lysis),"red blood cells; second experiment, pH 6.0, 2.5 M NaCl wash",0.162
same,A541 (red blood cell lysis),"red blood cells; second experiment, pH 7.5, 2.5 M NaCl wash",0.087
"glycolic acid ethoxylate(4 units) 4-tert-buty-1,4-cyclohexadiene ether",rate constant of enol ether hydrolysis,[4],0.0159 min⁻¹
